Data published in paper PMC6178282, “Comparative cell biological study of in vitro antitumor and antimetastatic activity on melanoma cells of GnRH-III-containing conjugates modified with short-chain fatty acids” (Beilstein Journal of Organic Chemistry, 2018).

What was measured:
[1] = test system: A2058 cells; experiment: Cellular uptake by flow cytometry (Dau fluorescence); assay type: cell-based, human; conditions: 10^−5 M, 1, 4 and 6 h, FACSCalibur flow cytometry, mean of 2 parallels
Description: For investigation and comparison of the cellular uptake of the conjugates, A2058 cells were treated with the conjugates at 10^−5 M concentration for 1, 4 and 6 h. The fluorescence intensity of intracellular Dau built in the conjugates and as the free drug was determined by flow cytometry (FACSCalibur; Becton Dickinson, San Jose, CA, USA).
Figure 2 Cellular uptake of Dau–GnRH-III conjugates and free daunorubicin (Dau) by A2058 cells. Cellular uptake of the compounds was studied in 10^−5 M concentration. GeoMean (geometric mean channel) value is a dimensionless value and refers to the relative fluorescence intensity. Data shown are mean of 2 parallels ± SD. […]
To study the cellular uptake of conjugates and Dau as the reference drug, A2058 cells (2 × 10^5 cells/well) were seeded on 12-well plates and cultured for 24 h. […] The measurements of internalized conjugates are based on the fluorescence activity of Dau. For detecting the intracellular fluorescence intensity of the cells, which is proportional with the cellular uptake, FACSCalibur flow cytometer (Becton Dickinson, San Jose, CA, USA) was used by collecting 10000 cells for each measurement. […] CellQuest Pro program (Becton-Dickinson, San Jose, CA, USA) was used for the measurement and the evaluation of relative fluorescence intensity (geometric mean channel – GeoMean values). […]

[2] = test system: A2058 cells; experiment: Cell adhesion measurement, xCELLigence impedimetry; assay type: cell-based, human; conditions: Delta CI at 3 h normalized to control, three parallels
Source text: The first crucial steps in metastasis cascade are the impaired adhesion contacts and in parallel the increased motility of tumor cells. These two events substantially provide for tumor cells to detach from the primary tumor and migrate to the surrounding tissue. Besides the tumor-selective antiproliferative/cytotoxic activity of the conjugates, they could be also desired to have an ability to interfere with the dissemination of cancer cells by modulating their adhesion and migration. In order to evaluate the conjugates as antimetastatic therapeutics, their effects on melanoma cell adhesion were investigated by the impedance-based xCELLigence System. The cell adhesion modulator effects of compounds were characterized by Delta Cell index values. […]
The effect of Dau-GnRH-III conjugates on cell adhesion of model cell was assessed using the xCELLigence SP System ( ACEA Biosciences, San Diego, CA, USA).
The adhesion assay, analogous to the description in [5], was started with a background measurement as mentioned above in the section “Cell proliferation and cytotoxicity measurement”. […] The adhesion of A2058 cells was monitored every 20 sec for at least 12 h at 10 kHz.
The attachment and spreading of model cell were characterized by a time-course study of the Delta CI values. The Delta CI values were calculated by the integrated software (RTCA 2.0). […]

## COc1cccc2c1C(=O)c1c(O)c3c(c(O)c1C2=O)C[C@@](O)(C(C)=O)C[C@@H]3O[C@H]1C[C@H](N)[C@H](O)[C@H](C)O1 [daunorubicin]
[1]
  Cellular uptake (GeoMean, relative intracellular fluorescence intensity normalized to control): high level of intracellular fluorescence
[2]; 10^−5 M
  effect on cell adhesion (Delta Cell index): decrease
[2]; tested 10^−8–10^−5 M
  concentrations at which adhesion of A2058 cells was increased (Delta Cell index): 10^−8 to 10^−7 M
